From US12516292B2, “Methods of producing modified natural killer cells and methods of use” (The United States of America, as represented by the …, priority 2016, dated 2026)

Tested on: human NK cells from PBMC
Assay: Fold expansion and overall yield of transduced NK cells in culture
Format: cell-based
Settings: BX795 (1.5 μM) during transduction combined with pre-stimulation with SMI-LCL feeder cells (FIG. 28A, 28B)

## O=C(NCCCNc1nc(Nc2cccc(NC(=O)N3CCCC3)c2)ncc1I)c1cccs1 [BX795]
  subsequent proliferation of lentiviral transduced ex-vivo expanded human NK cells: increased subsequent proliferation
